Results reported in patent publication US20250085285A1, “Methods for Generating Biologically Specific Chromatin Condensates and Uses Thereof” (The Regents of the University of California, priority 2022, published 2025).

Target: T1, HP1α-chromatin condensates (Homo sapiens, UniProt P45973)
T1 construct: 6x-His (cleaved yes); made in house; host or cells: E. coli Rosetta BL21 (DE3)
Test: HP1α-chromatin condensate in vitro droplet assay / screening (fluorescence imaging)
Assay type: biochemical
Conditions: for Effect of bioactive small molecules on HP1α-chromatin condensates: FIG. 7, Bioactive compound library (Selleck Chemicals), final concentration of 10 μM, H3K9me3 nucleosome arrays
Procedure: HP1α was diluted to the desired 2× concentration. HP1αKCK was added to HP1α at a ratio of 1:500 HP1α: HP1αKCK for evident fluorescent signal. HP1α-chromatin droplets were formed at 40 nM nucleosome array concentration in 20 mM HEPES pH 7.5, 0.1 mM EDTA and 2× HP1α-HP1αKCK in 20 mM HEPES pH 7.2, 150 mM KCl 1 mM DTT. 10 μL of 80 nM nucleosome arrays (2×) was mixed with 10 μl 2× HP1α-HP1αKCK and incubated at room temperature for 20 minutes before transferring to a glass bottom 384 well plate for imaging.
384 well glass bottom plates (Greiner Sensoplate 781892) were prepared for sample examination as follows: The wells were rinsed three times with 100 μl water, incubated with 100 μl of 2% Hellmanex for 30 mins-1 hour, rinsed with water three times again, incubated with 100 μl of 0.5M NaOH for 30 mins, rinsed with water three times, and then 70 μl of 20 mg/ml mPEG-silane dissolved in 95% EtOH was added to coat the wells. The plate was covered with foil and left overnight at 4° C.
After the overnight, the wells were rinsed with 95% EtOH five times, followed by incubation with 100 mg/ml BSA for 2 hours. Then, the wells were rinsed three times with water and three times with 1× phasing buffer afterwards (20 mM HEPES pH 7.2, 75 mM KCl, 0.05 mM EDTA, 0.5 mM DTT). After, the condensates are added to each well.
To conduct droplet assays at scale, arrays assembled with 540 μg fluorescently labeled array DNA and 1.3 mg of fluorescently labeled HP1α were needed for one 384 well plate. 384 well plates were washed and coated in mPEG-silane in bulk using the Biotek EL406 washer dispenser. HP1α-array droplets were screened against a Bioactive compound library (Selleck Chemicals). These compounds were diluted in 1× phasing buffer (20 mM HEPES pH 7.2, 75 mM KCl, 0.05 mM EDTA, 0.5 mM DTT), and added to the wells for a final concentration of 10 μM in the reaction. The droplets and compounds were dispensed in the 384 wells using the Biomek-FX.
After 3-4 hours of settling to the bottom of the plate, the condensates were imaged on the IN Cell Analyzer 6500HS equipped with a Nikon Plan Apo 40×/0.95NA objective and sCMOS camera. Five field of views per channel were taken per well. Image analysis was conducted using a custom pipeline written in Python using NumPy and SciPy SciKit libraries. Classical image segmentation and quantification techniques were implemented to identify droplets and characterize their geometry, fluorescent intensity, and consequently the effectiveness of the small molecules on the droplets.

T1 sequence (P45973 whole entry): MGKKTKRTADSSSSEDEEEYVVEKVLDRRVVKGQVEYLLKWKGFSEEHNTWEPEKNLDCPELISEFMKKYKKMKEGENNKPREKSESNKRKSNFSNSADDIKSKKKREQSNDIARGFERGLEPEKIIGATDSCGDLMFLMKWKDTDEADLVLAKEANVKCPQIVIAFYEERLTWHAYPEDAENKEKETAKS

Effect of bioactive small molecules on HP1α-chromatin condensates | Compound | Effect of biologically relevant interaction partners on HP1α-chromatin condensate formation (FIG. 6, interaction partner added to HP1α-chromatin condensates)
enhance condensate formation | C#Cc1cccc(Nc2ncnc3cc(OCCOC)c(OCCOC)cc23)c1 [Erlotinib] | –
– | HP1β: heterochromatin protein, biologically relevant interaction partner of HP1α-chromatin condensates | dissolves condensates, making them disappear or smaller
mild or no effect | CS(=O)(=O)CCNCc1ccc(-c2ccc3ncnc(Nc4ccc(OCc5cccc(F)c5)c(Cl)c4)c3c2)o1 [Lapatinib ditosylate] | –
dissolve condensates | CC(c1cc2ccccc2s1)N(O)C(N)=O (stereo not drawn) [Zileuton] | –
dissolve condensates | CN(C)CCN1C(=O)c2cccc3cc(N)cc(c23)C1=O [Amonifide] | –
enhance condensate formation | CS(=O)(=O)c1ccc(C(=O)Nc2ccc(Cl)c(-c3ccccn3)c2)c(Cl)c1 [Vismodegib] | –
